Laboratory results as given in article PMC6767204, “Synthesis and Biological Evaluation of Disubstituted Pyrimidines as Selective 5-HT2C Agonists” (Molecules, 2019).
Counter-ions that a name gives are not always drawn. Like-named read-outs stand apart in the source and are kept apart here.

Assays:
5-HT2C receptor [1] = target: T1, 5-HT2C receptor (Homo sapiens, UniProt P28335); test: 5-HT2C receptor cell-based functional assay (agonist mode, fluorescence-based); details: for %activation: Table 2, serotonin as reference compound
T1 sequence (P28335 33-458): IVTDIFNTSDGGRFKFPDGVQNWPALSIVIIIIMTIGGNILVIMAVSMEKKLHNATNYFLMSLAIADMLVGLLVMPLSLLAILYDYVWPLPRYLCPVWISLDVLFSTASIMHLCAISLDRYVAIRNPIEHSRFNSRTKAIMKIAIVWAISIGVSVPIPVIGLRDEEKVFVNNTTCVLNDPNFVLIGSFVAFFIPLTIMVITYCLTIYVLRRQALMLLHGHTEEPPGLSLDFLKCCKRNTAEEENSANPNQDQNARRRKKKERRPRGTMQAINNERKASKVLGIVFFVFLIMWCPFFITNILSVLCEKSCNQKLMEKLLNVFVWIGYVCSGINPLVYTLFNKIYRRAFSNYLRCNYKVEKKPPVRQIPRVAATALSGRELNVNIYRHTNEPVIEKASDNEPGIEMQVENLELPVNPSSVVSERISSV
Procedure: The synthesized compounds were tested in agonist mode with the 5-HT2C receptor assay using recombinant human HEK-293 cells serviced by either Eurofins Cerep or DGMIF (Daegu-Gyeongbuk Medical Innovation Foundation). All the experiments were duplicated.

5-HT2C receptor [2] = target: T1, 5-HT2C receptor; test: 5-HT receptor radioligand binding affinity assay, 2C; design: expressed in transfected cells; details: Table 2
Procedure: Eleven dilutions (5 x assay concentration) of the test and reference compounds (Table S1) were prepared in standard binding buffer (50 mM tris(hydroxymethyl)-aminomethane–HCl (Tris-HCl), 10 mM MgCl2, 1 mM ethylenediaminetetraacetate (EDTA), pH 7.4) by serial dilution: 0.05 nM, 0.5 nM, 1.5 nM, 5 nM, 15 nM, 50 nM, 150 nM, 500 nM, 1.5 μM, 5 μM, and 50 μM. The radioligand (Table S1) was diluted to five times the assay concentration in standard binding buffer. Aliquots (50 μL) of the radioligand were dispensed into the wells of a 96-well plate containing 100 μL of standard binding buffer. Triplicate aliquots (50 μL) of the test and reference compound dilutions were then added. Finally, crude membrane fractions (50 μL) of cells (HEK293 or CHO) expressing human recombinant receptors were dispensed into each well. A total 250 μL of the reaction mixtures was incubated at room temperature and shielded from light for 1.5 h, then harvested by rapid filtration onto Whatman GF/B glass fiber filters presoaked with 0.3% polyethyleneimine, by using a 96-well Brandel harvester.
Four rapid washes were performed with chilled standard binding buffer (500 μL) to decrease nonspecific binding. Filters were placed in 6 mL scintillation tubes and allowed to dry overnight. The next day, 4 ml of EcoScint scintillation cocktail (National Diagnostics) was added to each tube. The tubes were capped, labeled, and counted by liquid scintillation counting. The filter mats were dried, and the scintillant was melted onto the filters, then the radioactivity retained on the filters was counted in a Microbeta scintillation counter. The IC50 values were obtained by using the Prism 4.0 program (GraphPad Software, San Diego, CA) and converted into Ki values. Each compound was tested in triplicate at least.
3. Radioligands and reference compounds for binding assay
Table S1. A list of 5-HT receptor radioligands and reference compounds for binding assay.
Receptor subtype Radioligand Reference compound
1A [3H]8-OH-DPAT Methysergide
2A [3H]Ketanserin Chlorpromazine
2C [3H]Mesulergine Chlorpromazine

[3] = HEK293, read-out: %activation (10 μM), 10 μM, recombinant human HEK-293 cells, Table 1
[4] = HEK293, read-out: %activation (10 μM)

## Fc1cccc(Oc2cnc(N3CCNCC3)nc2)c1 [9a]
5-HT2C receptor [1]; [3]
  activation at 10 µM: 7%

## Fc1cccc(COc2cnc(N3CCNCC3)nc2)c1 [9b, 4-(5-((3-fluorobenzyl)oxy)pyrimidin-2-yl)piperazin-1-ium∙hydrochloride]
5-HT2C receptor [1]; [3]
  activation at 10 µM: > 50%

## Fc1cccc(CCOc2cnc(N3CCNCC3)nc2)c1 [9c]
5-HT2C receptor [1]; [3]
  activation at 10 µM: 15%

## Fc1ccc(Oc2cnc(N3CCNCC3)nc2)cc1 [9d]
5-HT2C receptor [1]; [3]
  activation at 10 µM: 5%

## Fc1ccc(COc2cnc(N3CCNCC3)nc2)cc1 [9e, 4-(5-((4-fluorobenzyl)oxy)pyrimidin-2-yl)piperazin-1-ium∙hydrochloride]
5-HT2C receptor [1]; [3]
  activation at 10 µM: 18%

## Fc1ccc(CCOc2cnc(N3CCNCC3)nc2)cc1 [9f]
5-HT2C receptor [1]; [3]
  activation at 10 µM: 4%

## C[C@@H]1CNCCN1c1ncc(Oc2cccc(F)c2)cn1 [9g]
5-HT2C receptor [1]; [4]
  activation at 10 µM: 35%

## C[C@@H]1CNCCN1c1ncc(OCc2cccc(F)c2)cn1 [9h, (R)-4-(5-((3-fluorobenzyl)oxy)pyrimidin-2-yl)-3-methylpiperazine-1-ium∙hydrochloride]
5-HT2C receptor [1]; [4]
  activation at 10 µM: 48%

## C[C@@H]1CNCCN1c1ncc(OCCc2cccc(F)c2)cn1 [9i]
5-HT2C receptor [1]; [4]
  activation at 10 µM: 40%

## C[C@@H]1CNCCN1c1ncc(Oc2ccc(F)cc2)cn1 [9j]
5-HT2C receptor [1]; [4]
  activation at 10 µM: 26%

## C[C@@H]1CNCCN1c1ncc(OCc2ccc(F)cc2)cn1 [9k, (R)-4-(5-((4-fluorobenzyl)oxy)pyrimidin-2-yl)-3-methylpiperazin-1-ium∙hydrochloride]
5-HT2C receptor [1]; [4]
  activation at 10 µM: 48%

## C[C@@H]1CNCCN1c1ncc(OCCc2ccc(F)cc2)cn1 [9l]
5-HT2C receptor [1]; [4]
  activation at 10 µM: 32%

## Fc1cccc(Oc2cnc(N3CCCNCC3)nc2)c1 [9m]
5-HT2C receptor [1]; [4]
  activation at 10 µM: 16%

## Fc1cccc(COc2cnc(N3CCCNCC3)nc2)c1 [9n, 4-(5-((3-fluorobenzyl)oxy)pyrimidin-2-yl)-1,4-diazepan-1-ium∙hydrochloride]
5-HT2C receptor [1]; [4]
  activation at 10 µM: -1%

## Fc1cccc(CCOc2cnc(N3CCCNCC3)nc2)c1 [9o]
5-HT2C receptor [1]; [4]
  activation at 10 µM: 3%

## Fc1ccc(Oc2cnc(N3CCCNCC3)nc2)cc1 [9p]
5-HT2C receptor [1]; [4]
  activation at 10 µM: 14%

## Fc1ccc(COc2cnc(N3CCCNCC3)nc2)cc1 [9q, 4-(5-((4-fluorobenzyl)oxy)pyrimidin-2-yl)-1,4-diazepan-1-ium∙hydrochloride]
5-HT2C receptor [1]; [4]
  activation at 10 µM: 16%

## Fc1ccc(CCOc2cnc(N3CCCNCC3)nc2)cc1 [9r]
5-HT2C receptor [1]; [4]
  activation at 10 µM: -1%

## C[C@@H](Oc1nc(N2CCC3(CCNC3)C2)ncc1F)c1cccc(F)c1 (stereo partly drawn) [10b, 2-(5-fluoro-4-((R)-1-(3-fluorophenyl)ethoxy)pyrimidin-2-yl)-2,7-diazaspiro[4.4]nonane]
5-HT2C receptor [1]
  %activation: 78.2%

## C[C@@H](Oc1nc(N2C[C@H]3CNC[C@H]3C2)ncc1F)c1cccc(F)c1 [10c, (3aR,6aS)-2-(5-fluoro-4-((R)-1-(3-fluorophenyl)ethoxy)pyrimidin-2-yl)octahydropyrrolo[3,4-c]pyrrole]
5-HT2C receptor [2]
  Ki: 0.295 µM
5-HT2C receptor [1]
  %activation: 29.5%

## C[C@@H](Oc1nc(N[C@@H]2CCNC2)ncc1F)c1cccc(F)c1 [10d, 5-fluoro-4-((R)-1-(3-fluorophenyl)ethoxy)-N-((R)-pyrrolidin-3-yl)pyrimidin-2-amine]
5-HT2C receptor [2]
  Ki: 0.119 µM
5-HT2C receptor [1]
  %activation: 16.4%

## C[C@@H](Oc1nc(N[C@H]2CCNC2)ncc1F)c1cccc(F)c1 [10e, 5-fluoro-4-((R)-1-(3-fluorophenyl)ethoxy)-N-((S)-pyrrolidin-3-yl)pyrimidin-2-amine]
5-HT2C receptor [2]
  Ki: 1.26 µM
5-HT2C receptor [1]
  %activation: 7.7%

## C[C@@H](Oc1nc(N2CCC3(CCNC3)C2)ncc1F)c1ccc(F)cc1 (stereo partly drawn) [10g, 2-(5-fluoro-4-((R)-1-(4-fluorophenyl)ethoxy)pyrimidin-2-yl)-2,7-diazaspiro[4.4]nonane]
5-HT2C receptor [2]
  Ki: 0.232 µM

## C[C@@H](Oc1nc(N2C[C@H]3CNC[C@H]3C2)ncc1F)c1ccc(F)cc1 [10h, (3aR,6aS)-2-(5-fluoro-4-((R)-1-(4-fluorophenyl)ethoxy)pyrimidin-2-yl)octahydropyrrolo[3,4-c]pyrrole]
5-HT2C receptor [2]
  Ki: 0.466 µM
5-HT2C receptor [1]
  %activation: 10.1%

## C[C@@H](Oc1nc(N[C@@H]2CCNC2)ncc1F)c1ccc(F)cc1 [10i, 5-fluoro-4-((R)-1-(4-fluorophenyl)ethoxy)-N-((R)-pyrrolidin-3-yl)pyrimidin-2-amine]
5-HT2C receptor [2]
  Ki: 0.12 µM

## C[C@@H](Oc1nc(N[C@H]2CCNC2)ncc1F)c1ccc(F)cc1 [10j, 5-Fluoro-4-((R)-1-(4-fluorophenyl)ethoxy)-N-((S)-pyrrolidin-3-yl)pyrimidin-2-amine]
5-HT2C receptor [1]
  %activation: 0.1%

## C[C@H]1CNCCc2ccc(Cl)cc21 [Lorcaserin (1), Lorcaserin, reference compound]
5-HT2C receptor [1]; 1 μM, Table 1 footnote a
  %activation value at 1 μM: 94^a %
